Experimental data as given in PubChem BioAssay (NCI).
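Five concentrations, 48 hours, 96-well plates. TGI: concentration producing complete growth inhibition.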

Test system: A498 renal
Test: NCI anticancer screen, dose series, 48 h

| Compound | TGI |
| --- | --- |
| CC(=O)NC1C(OCc2ccccc2)OC(CO)C(O)C1OCC(=O)N[C@@H](C)C(=O)N[C@H](CCC(=O)NCCCNc1ccc([N+](=O)[O-])c2[nH]c3ccccc3c(=O)c12)C(N)=O (stereo partly specified) | > 100 µM |
| CN(C)CCCNC(=O)c1cn2c(ccc3sc4ccccc4c(=O)c32)n1 | 30.7 µM |
| O=P(O)(O)CN1CCNCCN(CP(=O)(O)O)CC1 | > 100 µM |
| c1cc2c(cc1C1=NCCN1)c1cc(C3=NCCN3)ccc1n2CC1CCCCC1 | > 100 µM |
| C=C1CC2[C@H](C)C(=O)CCC2(C)C2=C1C1CCC(C(C)CCC(=C)C(C)C(=O)O)C1(C)CC2=O (stereo partly specified) | > 100 µM |
| CC(C)NC(=O)OCc1c(COC(=O)NC(C)C)c(-c2cc[n+](COC(=O)C3CCCCC3)cc2)n2c1CCC2 | > 100 µM |
| O=[N+]([O-])C(C=C(n1nnc2ccccc21)n1nnc2ccccc21)=C(n1nnc2ccccc21)n1nnc2ccccc21 | > 100 µM |

Test system: U251 CNS
Test: NCI anticancer screen, dose series, 48 h

| Compound | TGI |
| --- | --- |
| CCNC(=S)N/N=C(\C)c1cccc(C)n1 | 83.2 µM |
| CN1CCN([C@H]2C[C@H]3[C@@H]4CC=C5C[C@@H](O)CC[C@]5(C)[C@H]4CC[C@]3(C)[C@H]2O)CC1 | 32.8 µM |
| CC1C2(C)OCC(C#N)(C(=N)O2)C1(C#N)C#N (stereo unspecified) | 40.4 µM |
| C=CC[C@H](N=C(SC)SC)C(=O)N1C(=O)N(C)[C@@H](C)[C@H]1c1ccccc1 | > 100 µM |
| CC(=O)c1sc2[n+](c1C)C(=O)/C(=C\c1ccccc1Cl)S2 | 30.5 µM |
| CCCCCCCCCCCCOP(=O)(O)OP(=O)(O)OCC1OC(n2cc(C)c(=O)[nH]c2=O)CC1O (stereo unspecified) | > 100 µM |
| O=C1c2cc([N+](=O)[O-])sc2C(=O)c2c([N+](=O)[O-])csc21 | 1.01 µM |
| C[C@H](CCC(=O)NCC(=O)O)[C@H]1CC[C@H]2[C@@H]3[C@H](O)C[C@@H]4C[C@H](O)CC[C@]4(C)[C@H]3CC[C@]12C | > 100 µM |
| CCOc1cc2c(cc1O)C(N)C[C@@H]1[C@@H]2CC[C@]2(C)[C@@H](O)CC[C@@H]12 (stereo partly specified) | > 100 µM |
| CC(C)C(NC(=O)C(Cc1ccccc1)NC(=O)[C@H]1CCC[C@H]1NC(=O)C(Cc1ccc(OC(C)(C)C)cc1)NC(=O)OC(C)(C)C)C(N)=O (stereo partly specified) | 28.3 µM |
| Cc1ccc(NC(=O)CC(=O)n2nc(C)c(N=Nc3cccc(C)c3)c2C)cc1 | > 100 µM |
| N#C/C(=C\c1ccc2[nH]ccc2c1)C(=O)c1ccc(O)c(O)c1 | > 100 µM |
| O=[N+]([O-])/C(C(Cl)=C(Cl)Cl)=C(/Nc1ccccc1)Sc1ccccc1 | 27.7 µM |
| Cc1ccc2c(c1C)C(=O)/C(=C/c1cccc(C)c1C(=O)O)C2 | > 100 µM |
| O=C1N(c2ccccc2)C(=S)/C(=C/c2ccc(Cl)cc2)N1c1ccc(Cl)cc1 | 96.6 µM |
| O=C1C=C(N2CCN(CCOCCO)CC2)C(=O)c2c(O)ccc(O)c21 | 15.9 µM |
| CC/C(N)=N\NC(=O)OC(C)(C)C | > 100 µM |
| CC(=O)NC1C(OCc2ccccc2)OC(CO)C(O)C1OCC(=O)N[C@@H](C)C(=O)N[C@H](CCC(=O)NCCCNc1ccc([N+](=O)[O-])c2[nH]c3ccccc3c(=O)c12)C(N)=O (stereo partly specified) | > 100 µM |
| CN(C)CCCNC(=O)c1cn2c(ccc3sc4ccccc4c(=O)c32)n1 | 3.22 µM |
| O=P(O)(O)CN1CCNCCN(CP(=O)(O)O)CC1 | > 100 µM |
| c1cc2c(cc1C1=NCCN1)c1cc(C3=NCCN3)ccc1n2CC1CCCCC1 | 22.9 µM |
| C=C1CC2[C@H](C)C(=O)CCC2(C)C2=C1C1CCC(C(C)CCC(=C)C(C)C(=O)O)C1(C)CC2=O (stereo partly specified) | > 100 µM |
| CC(C)NC(=O)OCc1c(COC(=O)NC(C)C)c(-c2cc[n+](COC(=O)C3CCCCC3)cc2)n2c1CCC2 | > 100 µM |
| O=[N+]([O-])C(C=C(n1nnc2ccccc21)n1nnc2ccccc21)=C(n1nnc2ccccc21)n1nnc2ccccc21 | > 100 µM |

Test system: CCRF-CEM leukemia
Test: NCI anticancer screen, dose series, 48 h

| Compound | TGI |
| --- | --- |
| CCNC(=S)N/N=C(\C)c1cccc(C)n1 | > 100 µM |
| CN1CCN([C@H]2C[C@H]3[C@@H]4CC=C5C[C@@H](O)CC[C@]5(C)[C@H]4CC[C@]3(C)[C@H]2O)CC1 | 57.1 µM |
| CC1C2(C)OCC(C#N)(C(=N)O2)C1(C#N)C#N (stereo unspecified) | > 100 µM |
| C=CC[C@H](N=C(SC)SC)C(=O)N1C(=O)N(C)[C@@H](C)[C@H]1c1ccccc1 | > 100 µM |
| CC(=O)c1sc2[n+](c1C)C(=O)/C(=C\c1ccccc1Cl)S2 | 91 µM |
| CCCCCCCCCCCCOP(=O)(O)OP(=O)(O)OCC1OC(n2cc(C)c(=O)[nH]c2=O)CC1O (stereo unspecified) | > 100 µM |
| O=C1c2cc([N+](=O)[O-])sc2C(=O)c2c([N+](=O)[O-])csc21 | 0.389 µM |
| C[C@H](CCC(=O)NCC(=O)O)[C@H]1CC[C@H]2[C@@H]3[C@H](O)C[C@@H]4C[C@H](O)CC[C@]4(C)[C@H]3CC[C@]12C | > 100 µM |
| CCOc1cc2c(cc1O)C(N)C[C@@H]1[C@@H]2CC[C@]2(C)[C@@H](O)CC[C@@H]12 (stereo partly specified) | 71.6 µM |
| CC(C)C(NC(=O)C(Cc1ccccc1)NC(=O)[C@H]1CCC[C@H]1NC(=O)C(Cc1ccc(OC(C)(C)C)cc1)NC(=O)OC(C)(C)C)C(N)=O (stereo partly specified) | 39.4 µM |
| Cc1ccc(NC(=O)CC(=O)n2nc(C)c(N=Nc3cccc(C)c3)c2C)cc1 | > 100 µM |
| N#C/C(=C\c1ccc2[nH]ccc2c1)C(=O)c1ccc(O)c(O)c1 | > 85 µM |
| O=[N+]([O-])/C(C(Cl)=C(Cl)Cl)=C(/Nc1ccccc1)Sc1ccccc1 | 36.6 µM |
| Cc1ccc2c(c1C)C(=O)/C(=C/c1cccc(C)c1C(=O)O)C2 | > 100 µM |
| O=C1N(c2ccccc2)C(=S)/C(=C/c2ccc(Cl)cc2)N1c1ccc(Cl)cc1 | 61.1 µM |
| O=C1C=C(N2CCN(CCOCCO)CC2)C(=O)c2c(O)ccc(O)c21 | 14.8 µM |
| CC/C(N)=N\NC(=O)OC(C)(C)C | > 100 µM |
| CC(=O)NC1C(OCc2ccccc2)OC(CO)C(O)C1OCC(=O)N[C@@H](C)C(=O)N[C@H](CCC(=O)NCCCNc1ccc([N+](=O)[O-])c2[nH]c3ccccc3c(=O)c12)C(N)=O (stereo partly specified) | > 100 µM |
| CN(C)CCCNC(=O)c1cn2c(ccc3sc4ccccc4c(=O)c32)n1 | > 20.1 µM |
| O=P(O)(O)CN1CCNCCN(CP(=O)(O)O)CC1 | > 70.5 µM |
| c1cc2c(cc1C1=NCCN1)c1cc(C3=NCCN3)ccc1n2CC1CCCCC1 | 50.2 µM |
| C=C1CC2[C@H](C)C(=O)CCC2(C)C2=C1C1CCC(C(C)CCC(=C)C(C)C(=O)O)C1(C)CC2=O (stereo partly specified) | 30.3 µM |
| CC(C)NC(=O)OCc1c(COC(=O)NC(C)C)c(-c2cc[n+](COC(=O)C3CCCCC3)cc2)n2c1CCC2 | > 100 µM |
| O=[N+]([O-])C(C=C(n1nnc2ccccc21)n1nnc2ccccc21)=C(n1nnc2ccccc21)n1nnc2ccccc21 | > 100 µM |

Test system: SF-295 CNS
Test: NCI anticancer screen, dose series, 48 h

| Compound | TGI |
| --- | --- |
| CCNC(=S)N/N=C(\C)c1cccc(C)n1 | > 100 µM |
